In patent US20260250318A1, “COMPOSITIONS AND METHODS FOR CROSSING THE BLOOD BRAIN BARRIER” (VOYAGER THERAPEUTICS, INC., priority 2022, published 2026):

How the values were obtained:
brain [1] = assay: Maturation of TTM-002 capsid, NGS enrichment in brain of CD-1 Outbred mice; format: in vivo; details: NGS fold-enrichment in the brain of CD-1 Outbred mice; intravenous, 1.0×10^12 VG/dose, 14 days; RNA; relative to non-matured TTM-002 control
From the text: This Example describes maturation of the TTM-001 (SEQ ID NO: 981 (amino acid) and 983 (DNA), comprising SEQ ID NO: 941) and TTM-002 (SEQ ID NO: 982 (amino acid) and 984 (DNA), comprising SEQ ID NO: 2) capsid variants to further enhance their transduction and biodistribution in the central nervous system and evolve the AAV capsid variants to provide further cross-species compatibility. Two approaches were used to mature the TTM-001 and TTM-002 capsid sequences in order to randomize and mutate within and around the peptide insert comprised within loop IV of the capsid variant. […] In the first maturation approach, sets of three contiguous amino acids were randomized across the mutagenesis region in the TTM-001 and TTM-002 sequences, which spanned from position 450 to position 466, numbered according to SEQ ID NO: 981 and 982. In the second maturation approach, mutagenic primers were used to introduce point mutations at a low frequency, scattered across the mutagenesis region in the TTM-001 and TTM-002 sequences ranging from position 449 to position 466, numbered according to SEQ ID NO: 981 and 982. AAV capsid variants arising from each maturation approach for TTM-001 were pooled together and AAV capsid variants arising from each maturation approach for TTM-002 were also pooled together, for subsequent testing and characterization in mice.
The library of pooled matured AAV capsid variants generated from TTM-001 or library of pooled matured AAV capsid variants generated from the TTM-002 matured AAV capsid variant each were intravenously injected into the tail vein of three female CD-1 Outbred mice (Charles River) at a dose of 1.0×10^12 VG/dose. After 14-days in life, the brains of the mice were isolated and RNA was extracted. Following RNA recovery and RT-PCR amplification, a systematic NGS enrichment analysis was performed to calculate the fold enrichment ratio relative to the corresponding TTM-001 or TTM-002 control, and the peptides comprised within the variants were identified. The data for the TTM-001 matured capsid variants is provided in Table 13 and the data for the TTM-002 matured capsid variants is provided in Table 14.

[2] = system: brains, heart, liver, muscle, and DRG of the NHPs; assay: Maturation of TTM-001 and TTM-002 capsids, NGS enrichment in NHP tissues; format: in vivo; details: relative to AAV9 control
How it was run: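 Variants carry mutations within and flanking the loop IV peptide insert: positions 450–466 were triplet-randomized, while positions 449–466 received low-frequency point mutations. The combined pool went into two NHPs, and each peptide was scored by NGS enrichment ratio against AAV9.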

brain [3] = assay: Matured TTM-001 and TTM-002 variants, NGS enrichment in mouse brain; format: in vivo, mice; details: relative to AAV9 control
[4] = NGS fold-enrichment of RNA, NHP brain
[5] = NGS fold-enrichment, DRG of NHPs
[6] = NGS fold-enrichment, NHP liver DNA
[7] = NGS fold-enrichment, NHP liver RNA
[8] = NGS fold-enrichment, NHP muscle
[9] = NGS fold-enrichment, RNA, brain of NHPs
[10] = NGS fold-enrichment, heart of NHPs
[11] = NGS fold-enrichment, liver DNA of NHPs
[12] = NGS fold-enrichment, liver RNA of NHPs
[13] = NGS fold-enrichment, muscle of NHPs
[14] = NGS fold-enrichment, brain of mice
[15] = NGS fold-enrichment, mouse brain
[16] = NGS fold-enrichment of matured AAV capsid variants, NHP brain, RNA

| Sequence | Fold Enrichment relative to AAV9, Brain (NHP) [2, 4] [fold] | Fold Enrichment relative to AAV9, DRG (NHP) [2, 5] [fold] | Fold Enrichment relative to AAV9, DRG (NHP) ([2]; NGS fold-enrichment, NHP DRG) [fold] | Fold Enrichment relative to AAV9, Heart (NHP) ([2]; NGS fold-enrichment, NHP heart) [fold] | Fold Enrichment relative to AAV9, Liver DNA (NHP) [2, 6] [fold] | Fold Enrichment relative to AAV9, Liver RNA (NHP) [2, 7] [fold] | Fold Enrichment relative to AAV9, Muscle (NHP) [2, 8] [fold] | Fold Enrichment relative to AAV9, Brain (NHP) [2, 9] [fold] | Fold Enrichment relative to AAV9, Heart (NHP) [2, 10] [fold] | Fold Enrichment relative to AAV9, Liver DNA (NHP) [2, 11] [fold] | Fold Enrichment relative to AAV9, Liver RNA (NHP) [2, 12] [fold] | Fold Enrichment relative to AAV9, Muscle (NHP) [2, 13] [fold] | Fold Enrichment relative to AAV9, Brain (Mouse) (brain [3]; [14]) [fold] | Fold Enrichment relative to AAV9, Brain (Mouse) (brain [3]; [15]) [fold] | other results |
| --- | --- | --- | --- | --- | --- | --- | --- | --- | --- | --- | --- | --- | --- | --- | --- |
| KIEGGHDSPHKSGQNQQT | – | – | – | – | – | – | – | – | – | – | – | – | – | – | Fold enrichment over TTM-002 (brain [1]): 2.00 |
| KIEIGHDSPHKSGQNQQT | – | – | – | – | – | – | – | – | – | – | – | – | – | – | Fold enrichment over TTM-002 (brain [1]): 2.30 |
| KIEMGHDSPHKSGQNQQT | – | – | – | – | – | – | – | – | – | – | – | – | – | – | Fold enrichment over TTM-002 (brain [1]): 2.05 |
| KIENGHDSPHKSGQNQQT | – | – | – | – | – | – | – | – | – | – | – | – | – | – | Fold enrichment over TTM-002 (brain [1]): 2.19 |
| KTVNGSGSPHSKTQSQQT | 115.086 | 0.000 | 0.000 | 0.726 | 0.340 | 0.000 | 0.000 | 115.086 | 0.726 | 0.340 | 0.000 | 0.000 | 63.248 | 63.248 | – |
| KTVNRNGSPHSKAQNQQT | 133.016 | 0.000 | 0.000 | 0.416 | 0.000 | 0.000 | 0.000 | 133.016 | 0.416 | 0.000 | 0.000 | 0.000 | 85.361 | 85.361 | – |
| KTVPNSGSPHSKAQNQQT | – | 0.000 | – | – | – | – | – | 62.540 | 0.000 | 0.161 | 0.202 | 0.011 | 93.793 | – | – |
| KTVPTSGSPHSKAQNQQT | – | – | – | – | – | – | – | – | – | – | – | – | – | – | Fold Enrichment relative to AAV9, Brain (NHP) [2, 16]: 51.348 fold; Fold Enrichment relative to AAV9, DRG (NHP) ([2]; NHP DRG): 0.013 fold; Fold Enrichment relative to AAV9, Heart (NHP) ([2]; NHP heart): 0.000 fold; Fold Enrichment relative to AAV9, Liver DNA (NHP) ([2]; NHP liver, DNA): 0.338 fold; Fold Enrichment relative to AAV9, Liver RNA (NHP) ([2]; NHP liver, RNA): 1.017 fold; Fold Enrichment relative to AAV9, Muscle (NHP) ([2]; NHP muscle): 0.000 fold; Fold Enrichment relative to AAV9, Brain (Mouse) (brain [3]; mouse brain): 102.651 fold |
| KTVRDSGSPHSKAQNQQT | – | 0.000 | – | – | – | – | – | 66.056 | 0.025 | 0.461 | 0.129 | 0.000 | 142.600 | – | – |
| KTWQNSGSPHSKAQNQQT | – | – | – | – | – | – | – | – | – | – | – | – | – | – | Fold Enrichment relative to AAV9, Brain (NHP) [2, 16]: 55.245 fold; Fold Enrichment relative to AAV9, DRG (NHP) ([2]; NHP DRG): 0.000 fold; Fold Enrichment relative to AAV9, Heart (NHP) ([2]; NHP heart): 0.000 fold; Fold Enrichment relative to AAV9, Liver DNA (NHP) ([2]; NHP liver, DNA): 0.265 fold; Fold Enrichment relative to AAV9, Liver RNA (NHP) ([2]; NHP liver, RNA): 0.111 fold; Fold Enrichment relative to AAV9, Muscle (NHP) ([2]; NHP muscle): 0.000 fold; Fold Enrichment relative to AAV9, Brain (Mouse) (brain [3]; mouse brain): 114.258 fold |
| KVINGHDSPHKSGQTQQT (peptide inserted in AAV capsid) | 91.665 | – | 0.000 | 0.055 | 0.000 | 0.311 | 1.526 | – | – | – | – | – | – | 7.391 | – |
| KVINGSGSPHSKGQNQQT (peptide inserted in AAV capsid) | – | 0.000 | – | – | – | – | – | 60.001 | 0.000 | 0.157 | 0.264 | 0.031 | 68.532 | – | – |
| NTINGSGSPHSKAQNQQT (peptide inserted in AAV capsid) | 90.017 | 1.712 | 1.712 | 1.261 | 0.540 | 0.923 | 1.171 | 90.017 | 1.261 | 0.540 | 0.923 | 1.171 | 55.179 | 55.179 | – |
| NTIYGSGSPHSKAQNQQT (peptide inserted in AAV capsid) | – | 1.739 | – | – | – | – | – | 71.267 | 0.000 | 0.209 | 0.000 | 273.69 | 59.707 | – | – |
| TTINGHDSPHKSGQNQQT (peptide inserted in AAV capsid) | 108.963 | – | 1.512 | 3.445 | 1.109 | 0.659 | 0.869 | – | – | – | – | – | – | 14.788 | – |
| TTINGSGSPHSKAQNQQT (peptide inserted in AAV capsid) | 114.856 | 1.340 | 1.340 | 14.856 | 0.957 | 1.281 | 0.827 | 114.856 | 14.856 | 0.957 | 1.281 | 0.827 | 72.058 | 72.058 | – |
